Laboratory results taken from PubChem BioAssay (NCI).
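96-well plates; 48 h exposure; 5 concentrations. Endpoints by linear interpolation between flanking doses. Not reached: highest tested concentration assigned. At the GI50, growth is halved. TGI is the concentration that stops growth completely.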

How the values were obtained:
Assay in all cases: NCI tumour cell line growth inhibition, 48 h
SW-620 colon = tested on: SW-620 colon
CAKI-1 renal = tested on: CAKI-1 renal
UO-31 renal = tested on: UO-31 renal
TK-10 renal = tested on: TK-10 renal
T-47D breast = tested on: T-47D breast
SF-539 CNS = tested on: SF-539 CNS
A549 NSCLC = tested on: A549 NSCLC
U251 CNS = tested on: U251 CNS
MDA-MB-435 = tested on: MDA-MB-435
SK-MEL-5 melanoma = tested on: SK-MEL-5 melanoma
NCI-H522 lung = tested on: NCI-H522 lung
786-0 renal = tested on: 786-0 renal
SNB-19 CNS = tested on: SNB-19 CNS
DU-145 prostate = tested on: DU-145 prostate
BT-549 breast = tested on: BT-549 breast
SN12C renal = tested on: SN12C renal
MDA-MB-231 breast = tested on: MDA-MB-231 breast
RXF 393 renal = tested on: RXF 393 renal
ACHN renal = tested on: ACHN renal
HOP-92 NSCLC = tested on: HOP-92 NSCLC
M14 melanoma = tested on: M14 melanoma
NCI-H23 lung = tested on: NCI-H23 lung
HS 578T breast = tested on: HS 578T breast
SK-OV-3 ovarian = tested on: SK-OV-3 ovarian
CCRF-CEM leukemia = tested on: CCRF-CEM leukemia
KM12 colon = tested on: KM12 colon
MOLT-4 leukemia = tested on: MOLT-4 leukemia
SNB-75 CNS = tested on: SNB-75 CNS
MCF7 breast = tested on: MCF7 breast
NCI-H226 lung = tested on: NCI-H226 lung
HCT-15 colon = tested on: HCT-15 colon
A498 renal = tested on: A498 renal
EKVX NSCLC = tested on: EKVX NSCLC
SK-MEL-2 melanoma = tested on: SK-MEL-2 melanoma
UACC-62 melanoma = tested on: UACC-62 melanoma
NCI-H460 lung = tested on: NCI-H460 lung
IGROV1 ovarian = tested on: IGROV1 ovarian
COLO 205 colon = tested on: COLO 205 colon
OVCAR-8 ovarian = tested on: OVCAR-8 ovarian
OVCAR-4 ovarian = tested on: OVCAR-4 ovarian
RPMI-8226 leukemia = tested on: RPMI-8226 leukemia
SK-MEL-28 melanoma = tested on: SK-MEL-28 melanoma
SR leukemia = tested on: SR leukemia
SF-268 CNS = tested on: SF-268 CNS
HCT-116 colon = tested on: HCT-116 colon
OVCAR-5 ovarian = tested on: OVCAR-5 ovarian
NCI/ADR-RES ovarian = tested on: NCI/ADR-RES ovarian
LOX IMVI melanoma = tested on: LOX IMVI melanoma
MALME-3M melanoma = tested on: MALME-3M melanoma
PC-3 prostate = tested on: PC-3 prostate
HOP-62 NSCLC = tested on: HOP-62 NSCLC
HT29 colon = tested on: HT29 colon
SF-295 CNS = tested on: SF-295 CNS
OVCAR-3 ovarian = tested on: OVCAR-3 ovarian
HL-60(TB) leukemia = tested on: HL-60(TB) leukemia
HCC-2998 colon = tested on: HCC-2998 colon
UACC-257 melanoma = tested on: UACC-257 melanoma

CCc1ccc(C(=O)/C=C/C23c4ccccc4C(c4ccccc42)C2C(=O)NC(=O)C23)cc1 (centres undefined)
GI50 (SW-620 colon): 2.37 µM | TGI (SW-620 colon): 5.72 µM | GI50 (CAKI-1 renal): 2.27 µM | TGI (CAKI-1 renal): 7.29 µM | GI50 (UO-31 renal): 1.47 µM | TGI (UO-31 renal): 5.55 µM | GI50 (TK-10 renal): 2.62 µM | TGI (TK-10 renal): 6.47 µM | GI50 (T-47D breast): 2.28 µM | TGI (T-47D breast): 6.4 µM | GI50 (SF-539 CNS): 1.69 µM | TGI (SF-539 CNS): 3.22 µM | GI50 (A549 NSCLC): 2.07 µM | TGI (A549 NSCLC): 5.54 µM | GI50 (U251 CNS): 1.75 µM | TGI (U251 CNS): 3.17 µM | GI50 (MDA-MB-435): 2.31 µM | TGI (MDA-MB-435): 5.53 µM | GI50 (SK-MEL-5 melanoma): 1.65 µM | TGI (SK-MEL-5 melanoma): 3.21 µM | GI50 (NCI-H522 lung): 1.96 µM | TGI (NCI-H522 lung): 4.89 µM | GI50 (786-0 renal): 1.81 µM | TGI (786-0 renal): 3.54 µM | GI50 (SNB-19 CNS): 1.93 µM | TGI (SNB-19 CNS): 3.96 µM | GI50 (DU-145 prostate): 1.66 µM | TGI (DU-145 prostate): 3.08 µM | GI50 (BT-549 breast): 1.73 µM | TGI (BT-549 breast): 3.67 µM | GI50 (SN12C renal): 1.76 µM | TGI (SN12C renal): 3.42 µM | GI50 (MDA-MB-231 breast): 2.76 µM | TGI (MDA-MB-231 breast): 8.33 µM | GI50 (RXF 393 renal): 1.72 µM | TGI (RXF 393 renal): 3.24 µM | GI50 (ACHN renal): 3.35 µM | TGI (ACHN renal): 12.3 µM | GI50 (HOP-92 NSCLC): 1.73 µM | TGI (HOP-92 NSCLC): 3.5 µM | GI50 (M14 melanoma): 2.07 µM | TGI (M14 melanoma): 4.74 µM | GI50 (NCI-H23 lung): 2.09 µM | TGI (NCI-H23 lung): 4.15 µM | GI50 (HS 578T breast): 2.24 µM | TGI (HS 578T breast): 8.73 µM | GI50 (SK-OV-3 ovarian): 2.84 µM | TGI (SK-OV-3 ovarian): 7.54 µM | GI50 (CCRF-CEM leukemia): 2.66 µM | TGI (CCRF-CEM leukemia): 11 µM | GI50 (KM12 colon): 1.82 µM | TGI (KM12 colon): 3.77 µM | GI50 (MOLT-4 leukemia): 2.23 µM | TGI (MOLT-4 leukemia): 7.97 µM | GI50 (SNB-75 CNS): 1.67 µM | TGI (SNB-75 CNS): 3.45 µM | GI50 (MCF7 breast): 1.89 µM | TGI (MCF7 breast): 5.62 µM | GI50 (NCI-H226 lung): 2.68 µM | TGI (NCI-H226 lung): 9.12 µM | GI50 (HCT-15 colon): 1.79 µM | TGI (HCT-15 colon): 4.02 µM | GI50 (A498 renal): 1.71 µM | TGI (A498 renal): 3.14 µM | GI50 (EKVX NSCLC): 1.6 µM | TGI (EKVX NSCLC): 3.56 µM | GI50 (SK-MEL-2 melanoma): 2.23 µM | TGI (SK-MEL-2 melanoma): 4.65 µM | GI50 (UACC-62 melanoma): 1.73 µM | TGI (UACC-62 melanoma): 3.48 µM | GI50 (NCI-H460 lung): 2.12 µM | TGI (NCI-H460 lung): 5.09 µM | GI50 (IGROV1 ovarian): 1.76 µM | TGI (IGROV1 ovarian): 4.1 µM | GI50 (COLO 205 colon): 2.13 µM | TGI (COLO 205 colon): 4.02 µM | GI50 (OVCAR-8 ovarian): 2.09 µM | TGI (OVCAR-8 ovarian): 5.68 µM | GI50 (OVCAR-4 ovarian): 2.9 µM | TGI (OVCAR-4 ovarian): 11.9 µM | GI50 (RPMI-8226 leukemia): 1.87 µM | TGI (RPMI-8226 leukemia): 4.6 µM | GI50 (SK-MEL-28 melanoma): 1.96 µM | TGI (SK-MEL-28 melanoma): 3.6 µM | GI50 (SR leukemia): 1.37 µM | TGI (SR leukemia): 4.36 µM | GI50 (SF-268 CNS): 1.86 µM | TGI (SF-268 CNS): 4.09 µM | GI50 (HCT-116 colon): 1.58 µM | TGI (HCT-116 colon): 3.65 µM | GI50 (OVCAR-5 ovarian): 2.23 µM | TGI (OVCAR-5 ovarian): 5.57 µM | GI50 (NCI/ADR-RES ovarian): 2.15 µM | TGI (NCI/ADR-RES ovarian): 4.73 µM | GI50 (LOX IMVI melanoma): 1.67 µM | TGI (LOX IMVI melanoma): 3.16 µM | GI50 (MALME-3M melanoma): 1.82 µM | TGI (MALME-3M melanoma): 3.96 µM | GI50 (PC-3 prostate): 1.73 µM | TGI (PC-3 prostate): 3.7 µM | GI50 (HOP-62 NSCLC): 2.87 µM | TGI (HOP-62 NSCLC): 8.82 µM | GI50 (HT29 colon): 2.2 µM | TGI (HT29 colon): 4.75 µM | GI50 (SF-295 CNS): 2.45 µM | TGI (SF-295 CNS): 5.73 µM | GI50 (OVCAR-3 ovarian): 1.71 µM | TGI (OVCAR-3 ovarian): 3.1 µM | GI50 (HL-60(TB) leukemia): 0.0697 µM | TGI (HL-60(TB) leukemia): 1.93 µM | GI50 (HCC-2998 colon): 2.09 µM | TGI (HCC-2998 colon): 3.65 µM | GI50 (UACC-257 melanoma): 1.9 µM | TGI (UACC-257 melanoma): 4.15 µM
